Results from patent US20150307520A1, “NOVEL HETEROARYL AND HETEROCYCLE COMPOUNDS, COMPOSITIONS AND METHODS THEREOF” (HUTCHISON MEDIPHARMA LIMITED, priority 2012, published 2015).

Assays:
Type in all cases: biochemical
p110γ = p110γ (Homo sapiens, UniProt P48736); assay: Transcreener KINASE Assay, kinase inhibition of p110γ; details: for PI3Kγ IH % @ 1 uM: 1 uM test compound; for IC50: read-out: PI3Kγ IC50
How it was run: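 Recombinant PI3K isoforms (p85α complexes or p110γ alone) reacted 80 min at room temperature, then ADP detection mix added for 60 min. ADP formation read by far-red competitive fluorescence polarization immunoassay; IC50 by curve fitting.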

p110δ/p85α = p110δ/p85α (Homo sapiens, UniProt O00329); assay: Transcreener KINASE Assay, kinase inhibition of p110δ/p85α; details: for PI3Kδ IH % @ 1 uM: 1 uM test compound; for IC50: read-out: PI3Kδ IC50
How it was run: (§1)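 Steps: compound (2% DMSO final) plus enzyme in HEPES/NaCl/EGTA/CHAPS/3 mM MgCl2/1 mM DTT buffer; start with PIP2/ATP addition (30 uM/10 uM solution); 80 min RT; add ADP detection mix, 60 min RT; read fluorescence polarization.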

p110β/p85α = p110β/p85α (Homo sapiens, UniProt P42338); assay: Transcreener KINASE Assay, kinase inhibition of p110β/p85α; details: for PI3Kβ IH % @ 1 uM: 1 uM test compound; for IC50: read-out: PI3Kβ IC50
How it was run: as §1

Chain of p110δ/p85α (O00329 whole entry): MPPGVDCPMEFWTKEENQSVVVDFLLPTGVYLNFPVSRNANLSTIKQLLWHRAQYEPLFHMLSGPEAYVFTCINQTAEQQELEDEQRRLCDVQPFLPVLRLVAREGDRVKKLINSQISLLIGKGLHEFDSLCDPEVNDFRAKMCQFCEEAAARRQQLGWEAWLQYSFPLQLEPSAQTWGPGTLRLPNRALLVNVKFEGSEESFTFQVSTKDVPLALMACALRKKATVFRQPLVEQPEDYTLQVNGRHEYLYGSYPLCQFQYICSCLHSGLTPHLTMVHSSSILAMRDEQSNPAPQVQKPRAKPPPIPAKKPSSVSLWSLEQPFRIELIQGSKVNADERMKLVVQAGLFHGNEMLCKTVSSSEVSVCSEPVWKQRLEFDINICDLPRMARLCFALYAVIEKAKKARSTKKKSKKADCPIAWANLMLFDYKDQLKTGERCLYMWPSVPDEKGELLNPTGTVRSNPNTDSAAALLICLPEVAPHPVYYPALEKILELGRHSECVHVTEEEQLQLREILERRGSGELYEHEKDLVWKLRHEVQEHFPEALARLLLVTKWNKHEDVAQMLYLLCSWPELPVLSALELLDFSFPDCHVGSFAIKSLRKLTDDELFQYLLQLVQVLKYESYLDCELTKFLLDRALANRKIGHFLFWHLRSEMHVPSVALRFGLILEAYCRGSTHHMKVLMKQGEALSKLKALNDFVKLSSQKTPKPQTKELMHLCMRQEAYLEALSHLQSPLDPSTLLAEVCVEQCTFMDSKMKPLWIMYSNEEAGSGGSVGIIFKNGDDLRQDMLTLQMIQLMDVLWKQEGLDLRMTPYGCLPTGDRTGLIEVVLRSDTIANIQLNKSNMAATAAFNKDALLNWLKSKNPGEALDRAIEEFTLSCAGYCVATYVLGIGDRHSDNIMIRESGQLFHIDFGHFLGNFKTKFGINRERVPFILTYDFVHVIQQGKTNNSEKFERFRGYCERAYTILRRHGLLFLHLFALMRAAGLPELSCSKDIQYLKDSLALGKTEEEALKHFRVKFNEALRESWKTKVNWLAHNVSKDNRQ
Chain of p110δ/p85α (P27986 whole entry partner): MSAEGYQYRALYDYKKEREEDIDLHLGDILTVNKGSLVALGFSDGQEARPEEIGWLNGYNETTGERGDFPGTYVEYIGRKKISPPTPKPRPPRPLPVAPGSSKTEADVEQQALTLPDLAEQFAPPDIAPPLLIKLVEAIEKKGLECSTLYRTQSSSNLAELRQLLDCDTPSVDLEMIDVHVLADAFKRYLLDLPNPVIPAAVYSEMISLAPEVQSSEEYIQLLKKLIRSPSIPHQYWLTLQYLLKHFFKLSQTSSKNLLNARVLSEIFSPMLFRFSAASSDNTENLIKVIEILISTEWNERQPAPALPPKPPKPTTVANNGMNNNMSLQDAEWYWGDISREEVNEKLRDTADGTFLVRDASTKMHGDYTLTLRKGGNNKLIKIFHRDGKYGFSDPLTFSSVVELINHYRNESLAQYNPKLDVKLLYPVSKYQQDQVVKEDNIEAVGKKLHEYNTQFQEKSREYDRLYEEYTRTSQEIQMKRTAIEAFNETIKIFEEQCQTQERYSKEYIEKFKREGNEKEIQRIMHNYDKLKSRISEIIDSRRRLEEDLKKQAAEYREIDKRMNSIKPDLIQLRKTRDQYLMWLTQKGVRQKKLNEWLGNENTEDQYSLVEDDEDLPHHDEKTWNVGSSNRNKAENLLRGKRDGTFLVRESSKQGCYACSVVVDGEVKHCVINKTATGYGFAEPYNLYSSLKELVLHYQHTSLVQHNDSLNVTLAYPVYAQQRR
Chain of p110γ (P48736 whole entry, canonical isoform): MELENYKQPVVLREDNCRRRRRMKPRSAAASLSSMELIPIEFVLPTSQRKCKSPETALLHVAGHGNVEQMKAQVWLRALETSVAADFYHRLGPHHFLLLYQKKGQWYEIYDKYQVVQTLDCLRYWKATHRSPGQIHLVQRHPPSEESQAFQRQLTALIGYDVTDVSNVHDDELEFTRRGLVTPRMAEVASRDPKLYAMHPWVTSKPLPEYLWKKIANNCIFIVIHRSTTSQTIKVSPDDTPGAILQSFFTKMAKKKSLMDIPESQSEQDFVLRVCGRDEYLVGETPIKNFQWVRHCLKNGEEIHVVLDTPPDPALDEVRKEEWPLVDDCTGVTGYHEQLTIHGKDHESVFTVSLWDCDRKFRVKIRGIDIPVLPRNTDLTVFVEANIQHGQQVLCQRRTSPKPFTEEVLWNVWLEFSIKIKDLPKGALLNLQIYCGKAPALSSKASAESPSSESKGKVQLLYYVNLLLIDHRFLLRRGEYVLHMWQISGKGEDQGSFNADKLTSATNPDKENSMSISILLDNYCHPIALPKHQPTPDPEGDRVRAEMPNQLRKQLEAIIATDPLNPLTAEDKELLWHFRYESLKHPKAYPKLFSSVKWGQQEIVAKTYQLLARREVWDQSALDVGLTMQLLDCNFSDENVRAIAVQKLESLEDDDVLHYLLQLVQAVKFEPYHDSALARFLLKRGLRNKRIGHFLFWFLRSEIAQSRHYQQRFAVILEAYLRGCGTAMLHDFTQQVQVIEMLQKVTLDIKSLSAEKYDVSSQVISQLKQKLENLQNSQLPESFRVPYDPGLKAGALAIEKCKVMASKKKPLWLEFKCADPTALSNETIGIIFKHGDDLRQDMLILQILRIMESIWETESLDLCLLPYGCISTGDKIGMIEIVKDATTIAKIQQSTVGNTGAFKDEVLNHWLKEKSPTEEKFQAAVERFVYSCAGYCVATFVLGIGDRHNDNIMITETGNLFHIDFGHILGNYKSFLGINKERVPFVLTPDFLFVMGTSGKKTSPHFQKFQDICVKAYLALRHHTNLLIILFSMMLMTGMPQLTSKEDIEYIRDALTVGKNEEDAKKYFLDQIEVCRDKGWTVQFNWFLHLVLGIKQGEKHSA
Chain of p110β/p85α (P42338 whole entry): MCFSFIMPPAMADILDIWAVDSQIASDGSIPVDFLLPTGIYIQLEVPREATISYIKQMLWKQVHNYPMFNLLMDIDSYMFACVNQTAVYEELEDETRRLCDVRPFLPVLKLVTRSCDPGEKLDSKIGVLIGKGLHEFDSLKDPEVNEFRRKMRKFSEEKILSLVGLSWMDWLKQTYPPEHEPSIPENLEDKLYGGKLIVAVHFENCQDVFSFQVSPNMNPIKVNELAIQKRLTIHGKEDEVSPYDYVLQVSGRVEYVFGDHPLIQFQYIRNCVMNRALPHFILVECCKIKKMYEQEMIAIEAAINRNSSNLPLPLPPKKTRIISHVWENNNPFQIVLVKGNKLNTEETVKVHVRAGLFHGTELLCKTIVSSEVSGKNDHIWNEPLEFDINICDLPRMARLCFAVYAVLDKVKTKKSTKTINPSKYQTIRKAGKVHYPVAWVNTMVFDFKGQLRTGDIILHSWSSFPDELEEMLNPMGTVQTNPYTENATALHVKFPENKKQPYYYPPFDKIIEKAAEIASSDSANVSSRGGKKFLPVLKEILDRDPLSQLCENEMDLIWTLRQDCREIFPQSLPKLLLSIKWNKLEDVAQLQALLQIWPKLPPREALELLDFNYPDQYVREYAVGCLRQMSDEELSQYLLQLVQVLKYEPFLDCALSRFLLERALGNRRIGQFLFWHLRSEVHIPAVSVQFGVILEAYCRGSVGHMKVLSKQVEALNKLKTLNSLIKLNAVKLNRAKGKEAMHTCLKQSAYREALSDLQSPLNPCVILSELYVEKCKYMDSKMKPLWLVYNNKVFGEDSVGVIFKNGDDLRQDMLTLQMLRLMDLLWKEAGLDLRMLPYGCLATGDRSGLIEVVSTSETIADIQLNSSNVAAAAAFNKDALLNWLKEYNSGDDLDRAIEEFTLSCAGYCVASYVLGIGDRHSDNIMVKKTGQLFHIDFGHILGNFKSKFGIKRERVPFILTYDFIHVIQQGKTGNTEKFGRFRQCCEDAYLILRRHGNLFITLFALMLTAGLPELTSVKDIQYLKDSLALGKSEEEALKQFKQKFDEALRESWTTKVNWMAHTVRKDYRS
Chain of p110β/p85α (P27986 2-724 partner): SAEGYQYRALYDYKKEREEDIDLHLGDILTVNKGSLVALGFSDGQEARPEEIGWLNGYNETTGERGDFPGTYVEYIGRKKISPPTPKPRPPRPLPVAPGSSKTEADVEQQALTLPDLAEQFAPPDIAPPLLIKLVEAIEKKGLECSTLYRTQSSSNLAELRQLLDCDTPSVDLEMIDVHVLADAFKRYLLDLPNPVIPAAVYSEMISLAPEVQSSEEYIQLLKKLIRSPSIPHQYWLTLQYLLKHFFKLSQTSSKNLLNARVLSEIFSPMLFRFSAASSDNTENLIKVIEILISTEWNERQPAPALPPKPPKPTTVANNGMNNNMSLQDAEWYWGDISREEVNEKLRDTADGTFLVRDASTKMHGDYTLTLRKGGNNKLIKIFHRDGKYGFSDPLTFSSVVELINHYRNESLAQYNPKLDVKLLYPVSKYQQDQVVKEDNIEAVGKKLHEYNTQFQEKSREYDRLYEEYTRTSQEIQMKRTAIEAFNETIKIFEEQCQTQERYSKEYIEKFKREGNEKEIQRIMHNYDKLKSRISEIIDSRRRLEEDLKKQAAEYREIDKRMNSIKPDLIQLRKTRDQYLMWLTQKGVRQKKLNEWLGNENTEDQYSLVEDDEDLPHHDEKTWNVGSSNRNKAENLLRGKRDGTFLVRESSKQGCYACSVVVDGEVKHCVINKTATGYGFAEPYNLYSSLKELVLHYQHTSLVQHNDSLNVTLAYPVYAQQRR

Row | PI3Kγ IH % @ 1 uM (p110γ) | IC50 (p110γ) | PI3Kδ IH % @ 1 uM (p110δ/p85α) | IC50 (p110δ/p85α) | PI3Kβ IH % @ 1 uM (p110β/p85α) | IC50 (p110β/p85α) | Structure (SMILES)
1 | 98.6% | 8 nM | 96.5% | 77 nM | 57.8% | – | CC(=O)c1cnc(N)nc1N1CC[C@H]1c1nn2ccc(Cl)c2c(=O)n1-c1ccc(F)cc1 [Compound 302]
2 | 94.6% | 1 nM | 97.2% | 1 nM | 92.7% | 21 nM | O=c1c2c(Cl)ccn2nc([C@@H]2CCCN2c2ncnc3[nH]cc(C4=NCCO4)c23)n1-c1ccccc1 [Compound 303, (S)-5-chloro-2-(1-(5-(4,5-dihydrooxazol-2-yl)-7H-pyrrolo[2,3-d]pyrimidin-4-yl)pyrrolidin-2-yl)-3-phenylpyrrolo[2,1-f][1,2,4]triazin-4(3H)-one]
3 | 93.6% | – | 98.2% | 42 nM | 47.4% | – | O=C(NCCO)c1c[nH]c2ncnc(N3CC[C@H]3c3nn4ccc(Cl)c4c(=O)n3-c3ccccc3)c12 [Compound 304]
4 | 97.6% | 7 nM | >100% | 21 nM | 91.6% | 125 nM | O=c1c2c(Cl)ccn2nc([C@@H]2CCN2c2ncnc3[nH]cc(C4=NCCO4)c23)n1-c1ccccc1 [Compound 305]
5 | >100% | 29 nM | >100% | 11 nM | 92.8% | 16 nM | C/C(=N\O)c1c[nH]c2ncnc(N3CCC[C@H]3c3nn4ccc(Cl)c4c(=O)n3-c3ccccc3)c12 [Compound 306, (S)-5-chloro-2-(1-(5-(1-(hydroxyimino)ethyl)-7H-pyrrolo[2,3-d]pyrimidin-4-yl)pyrrolidin-2-yl)-3-phenylpyrrolo[2,1-f][1,2,4]triazin-4(3H)-one]
6 | 95.9% | 32 nM | 98.9% | 5 nM | 80.7% | 213 nM | CC(=O)Nc1c[nH]c2ncnc(N3CCC[C@H]3c3nn4ccc(Cl)c4c(=O)n3-c3ccccc3)c12 [Compound 307, (S)—N-(4-(2-(5-chloro-4-oxo-3-phenyl-3,4-dihydropyrrolo[2,1-f][1,2,4]triazin-2-yl)pyrrolidin-1-yl)-7H-pyrrolo[2,3-d]pyrimidin-5-yl)acetamide]
7 | 94.6% | 99 nM | >100% | 11 nM | 35.5% | – | N#Cc1c[nH]c2ncnc(N3CC[C@H]3c3nn4ccc(Cl)c4c(=O)n3-c3ccccn3)c12 [Compound 309, (S)-4-(2-(5-chloro-4-oxo-3-(pyridin-2-yl)-3,4-dihydropyrrolo[2,1-f][1,2,4]triazin-2-yl)azetidin-1-yl)-7H-pyrrolo[2,3-d]pyrimidine-5-carbonitrile]
8 | 93.7% | 67 nM | 97.1% | 23 nM | 20.0% | – | CC(=O)c1c[nH]c2ncnc(N3CC[C@H]3c3nn4ccc(Cl)c4c(=O)n3-c3ccccn3)c12 [Compound 312]
9 | 77.2% | 423 nM | 100.0% | 3 nM | 52.6% | – | O=c1c2c(F)ccn2nc([C@@H]2CCCN2c2ncnc3[nH]cnc23)n1-c1ccccn1 [Compound 313]
10 | 54.1% | – | 17.2% | – | 16.8% | – | Nc1nc(N2CC[C@H]2c2nn3ccc(Cl)c3c(=O)n2-c2ccccc2)n2ncc(Cl)c2n1 [Compound 314, (S)-2-(1-(2-amino-8-chloropyrazolo[1,5-a][1,3,5]triazin-4-yl)azetidin-2-yl)-5-chloro-3-phenylpyrrolo[2,1-f][1,2,4]triazin-4(3H)-one]
11 | 55.9% | – | 29.1% | – | 5.5% | – | N#Cc1cc2nc(N)nc(N3CCC[C@H]3c3nn4ccc(Cl)c4c(=O)n3-c3ccccc3)n2n1 [Compound 320]
12 | >100% | 11 nM | 100.0% | 5 nM | 80.5% | 218 nM | CC(=O)c1cnc(N)nc1N1CCCC1c1cn2ccc(Cl)c2c(=O)n1-c1ccccc1 (centres unmarked) [Compound 321]
13 | >100% | 27 nM | 99.5% | 5 nM | 58.0% | – | Cc1nc(N)nc(N2CC[C@H]2c2nn3ccc(F)c3c(=O)n2-c2ccccc2)c1C#N [Compound 322]
14 | >100% | 21 nM | 99.4% | 12 nM | 6.1% | – | CC(=O)c1cnc(N)nc1N1CC[C@H]1c1nn2ccc(F)c2c(=O)n1-c1ccccc1 [Compound 323]
15 | >100% | 5 nM | 98.8% | 1 nM | 67.1% | 456 nM | CC(=O)c1cnc(N)nc1N1C[C@H](C)[C@H]1c1nn2ccc(F)c2c(=O)n1-c1ccccc1 [Compound 324]
16 | 50.7% | – | 7.1% | – | −23.5% | – | Nc1ncc(C(=O)C2CC2)c(N2CC[C@H]2c2nn3ccc(Cl)c3c(=O)n2-c2ccccc2)n1 [Compound 326]
17 | 97.2% | 1 nM | 99.5% | 2 nM | 73.4% | 250 nM | Nc1nc2c(c(N3CCCC3c3cn4ccc(Cl)c4c(=O)n3-c3ccccc3)n1)C(=O)CCN2 (centres unmarked) [Compound 327]
18 | >100% | 147 nM | 71.9% | 121 nM | 20.9% | – | Nc1nc(N2CCC[C@H]2c2nn3ccc(Cl)c3c(=O)n2-c2ccccc2)c2cccn2n1 [Compound 331]
19 | 82.1% | 68 nM | 25.7% | – | 11.2% | – | Nc1nc(N2CC[C@H]2c2nn3ccc(Cl)c3c(=O)n2-c2ccccc2)c2ncccc2n1 [Compound 334]
20 | 69.5% | – | 48.4% | – | 17.0% | – | Nc1nc(N2CCC[C@H]2c2nn3ccc(Cl)c3c(=O)n2-c2ccccc2)c2ncccc2n1 [Compound 335]
21 | >100% | 5 nM | 99.2% | 1 nM | 93.2% | 21 nM | N#Cc1c[nH]c2ncnc(N3CCC[C@H]3c3nn4ccc(Cl)c4c(=O)n3-c3ccccn3)c12 [Compound 337, (S)-4-(2-(5-chloro-4-oxo-3-(pyridin-2-yl)-3,4-dihydropyrrolo[2,1-f][1,2,4]triazin-2-yl)pyrrolidin-1-yl)-7H-pyrrolo[2,3-d]pyrimidine-5-carbonitrile]
22 | 94.3% | 9 nM | 100.0% | 1 nM | 76.1% | 163 nM | CC(=O)c1c[nH]c2ncnc(N3CCC[C@H]3c3nn4ccc(Cl)c4c(=O)n3-c3ccccn3)c12 [Compound 340]
23 | 77.1% | 272 nM | 92.1% | 38 nM | 45.2% | – | Cc1cccc(-n2c([C@@H]3CCCN3c3ncnc4[nH]cnc34)nn3ccc(Cl)c3c2=O)n1 [Compound 342]
24 | 85.5% | 81 nM | 94.8% | 85 nM | 57.3% | – | O=c1c2c(Cl)ccn2nc([C@@H]2CCCN2c2ncnc3[nH]cnc23)n1-c1ccncn1 [Compound 344]
25 | 97.1% | 4 nM | >100% | 1 nM | 93.2% | 28 nM | N#Cc1c[nH]c2ncnc(N3C[C@@H](F)C[C@H]3c3nn4ccc(Cl)c4c(=O)n3-c3ccccn3)c12 [Compound 345]
